# Patent US20240425490A1, “SULFAMIDE RIBONUCLEOTIDE REDUCTASE (RNR) INHIBITORS AND USES THEREOF” (Boundless Bio, Inc., priority 2021, published 2024)
# Target: T1, RNR (RNR1:RNR2 1:1) (Homo sapiens, UniProt P23921)
# T1 sequence (P23921 1-792): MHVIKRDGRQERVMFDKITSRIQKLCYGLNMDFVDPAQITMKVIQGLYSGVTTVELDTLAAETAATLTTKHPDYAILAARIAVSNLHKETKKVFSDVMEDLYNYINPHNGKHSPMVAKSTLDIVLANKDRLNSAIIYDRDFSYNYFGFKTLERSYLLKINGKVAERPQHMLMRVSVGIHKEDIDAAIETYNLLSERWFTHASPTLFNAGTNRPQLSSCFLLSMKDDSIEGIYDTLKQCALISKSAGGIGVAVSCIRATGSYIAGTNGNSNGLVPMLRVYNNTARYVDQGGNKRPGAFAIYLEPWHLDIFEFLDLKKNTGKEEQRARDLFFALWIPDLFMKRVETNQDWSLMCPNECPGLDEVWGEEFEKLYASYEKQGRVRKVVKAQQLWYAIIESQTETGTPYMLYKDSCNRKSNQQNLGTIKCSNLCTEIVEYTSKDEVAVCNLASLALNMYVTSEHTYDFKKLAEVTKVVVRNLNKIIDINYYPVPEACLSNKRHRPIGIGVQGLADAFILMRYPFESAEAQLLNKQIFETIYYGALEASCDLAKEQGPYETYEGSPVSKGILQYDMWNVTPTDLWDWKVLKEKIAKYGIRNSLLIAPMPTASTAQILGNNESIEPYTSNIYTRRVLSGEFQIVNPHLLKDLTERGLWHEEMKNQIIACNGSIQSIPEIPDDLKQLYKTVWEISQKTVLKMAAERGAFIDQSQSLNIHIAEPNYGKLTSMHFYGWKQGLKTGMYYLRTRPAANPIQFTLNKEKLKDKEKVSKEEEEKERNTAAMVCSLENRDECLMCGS
# Experiment: RNR enzyme activity, rapid-fire mass spectrometry (RFMS) assay
# Type: biochemical
# Conditions: RNR 50 nM, CDP 5 μM, ATP 1 mM, 37° C., 45 min, compounds screened up to 50 μM, read-out: RF/MS IC50
# Summary of the method: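 Human RNR1:RNR2 (1:1, 50 nM) pre-incubated 15 min at room temperature with compound, then reacted with 5 μM CDP and 1 mM ATP, no NADPH, for 45 min at 37 °C. Stopped with 6% HCOOH; turnover read by rapid-fire mass spectrometry; Triapine and hydroxyurea as reference compounds.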
row,Structure (SMILES),IC50 [nM]
1,"Cc1ccc(F)c([C@@H](C)[C@H](NS(=O)(=O)N2CCC(Oc3ccccn3)CC2)c2n[nH]c(=O)o2)c1C [Example 70, N-((1S,2R)-2-(6-fluoro-2,3-dimethylphenyl)-1-(5-oxo-4,5-dihydro-1,3,4-oxadiazol-2-yl)propyl)-4-(pyridin-2-yloxy)piperidine-1-sulfonamide]",100 to 1000
2,"Cc1ccc(F)c(C(C)[C@H](NS(=O)(=O)N2CCC(OC(F)(F)F)CC2)c2n[nH]c(=O)o2)c1C (stereo partly drawn) [Example 46, N-((1S)-2-(6-fluoro-2,3-dimethylphenyl)-1-(5-oxo-4,5-dihydro-1,3,4-oxadiazol-2-yl)propyl)-4-(trifluoromethoxy)piperidine-1-sulfonamide]",1000 to 10000
3,"Cc1ccc(F)c([C@@H](C)[C@H](NS(=O)(=O)N2CCC(C3CCCCC3)CC2)c2n[nH]c(=O)o2)c1C [Example 9, 4-cyclohexyl-N-((1S,2R)-2-(6-fluoro-2,3-dimethylphenyl)-1-(5-oxo-4,5-dihydro-1,3,4-oxadiazol-2-yl)propyl)piperidine-1-sulfonamide]",10000 to 100000
4,"C#CC1CCN(S(=O)(=O)N[C@H](c2n[nH]c(=O)o2)[C@H](C)c2c(F)ccc(C)c2C)CC1 [Example 48, 4-ethynyl-N-((1S,2R)-2-(6-fluoro-2,3-dimethylphenyl)-1-(5-oxo-4,5-dihydro-1,3,4-oxadiazol-2-yl)propyl)piperidine-1-sulfonamide]",1000 to 10000
5,"Cc1ccc(F)c(C(C)[C@H](NS(=O)(=O)N2CCC(c3ccccc3)CC2)c2n[nH]c(=O)o2)c1C (stereo partly drawn) [Example 34, N-((1S)-2-(6-fluoro-2,3-dimethylphenyl)-1-(5-oxo-4,5-dihydro-1,3,4-oxadiazol-2-yl)propyl)-4-phenylpiperidine-1-sulfonamide]",1000 to 10000
6,"Cc1ccc(F)c([C@H](C)[C@H](NS(=O)(=O)N2CCC3(CC2)CC(F)(F)C3)c2n[nH]c(=O)o2)c1C [Example 95, 2,2-difluoro-N-((1S,2S)-2-(6-fluoro-2,3-dimethylphenyl)-1-(5-oxo-4,5-dihydro-1,3,4-oxadiazol-2-yl)propyl)-7-azaspiro[3.5]nonane-7-sulfonamide]",1000 to 10000
7,"Cc1ccc(F)c([C@@H](C)[C@H](NS(=O)(=O)N2CCCc3ccccc32)c2n[nH]c(=O)o2)c1C [Example 109, N-((1S,2R)-2-(6-fluoro-2,3-dimethylphenyl)-1-(5-oxo-4,5-dihydro-1,3,4-oxadiazol-2-yl)propyl)-3,4-dihydroquinoline-1(2H)-sulfonamide]",1000 to 10000
8,"CC(=O)N1CCN(S(=O)(=O)N[C@H](c2n[nH]c(=O)o2)C(C)c2c(F)ccc(C)c2C)CC1 (stereo partly drawn) [Example 37, 4-acetyl-N-((1S)-2-(6-fluoro-2,3-dimethylphenyl)-1-(5-oxo-4,5-dihydro-1,3,4-oxadiazol-2-yl)propyl)piperazine-1-sulfonamide]",1000 to 10000
9,"Cc1ccc(F)c(C(C)[C@H](NS(=O)(=O)N2CCCC(C#N)C2)c2n[nH]c(=O)o2)c1C (stereo partly drawn) [Example 26, 3-cyano-N-((1S)-2-(6-fluoro-2,3-dimethylphenyl)-1-(5-oxo-4,5-dihydro-1,3,4-oxadiazol-2-yl)propyl)piperidine-1-sulfonamide]",1000 to 10000
10,"Cc1ccc(F)c([C@@H](C)[C@H](NS(=O)(=O)N2CCC(C)(C)CC2)c2n[nH]c(=O)o2)c1C [Example 113, N-((1S,2R)-2-(6-fluoro-2,3-dimethylphenyl)-1-(5-oxo-4,5-dihydro-1,3,4-oxadiazol-2-yl)propyl)-4,4-dimethyl piperidine-1-sulfonamide]",100 to 1000
11,"Cc1ccc(F)c([C@@H](C)[C@H](NS(=O)(=O)N2CCC(C)CC2)c2n[nH]c(=O)o2)c1C [Example 115, N-((1S,2R)-2-(6-fluoro-2,3-dimethylphenyl)-1-(5-oxo-4,5-dihydro-1,3,4-oxadiazol-2-yl)propyl)-4-methylpiperidine-1-sulfonamide]",100 to 1000
12,"Cc1ccc(F)c(C(C)[C@H](NS(=O)(=O)N2CCC(N3CCCC3=O)CC2)c2n[nH]c(=O)o2)c1C (stereo partly drawn) [Example 80, N-((1S)-2-(6-fluoro-2,3-dimethylphenyl)-1-(5-oxo-4,5-dihydro-1,3,4-oxadiazol-2-yl)propyl)-4-(2-oxopyrrolidin-1-yl)piperidine-1-sulfonamide]",1000 to 10000
13,"Cc1ccc(F)c([C@H](C)[C@H](NS(=O)(=O)N2CCC(Cl)(Cl)CC2)c2n[nH]c(=O)o2)c1C [Example 98, 4,4-dichloro-N-((1S,2S)-2-(6-fluoro-2,3-dimethylphenyl)-1-(5-oxo-4,5-dihydro-1,3,4-oxadiazol-2-yl)propyl)piperidine-1-sulfonamide]",1000 to 10000
14,"CNC(=O)C1CCN(S(=O)(=O)N[C@H](c2n[nH]c(=O)o2)[C@@H](C)c2c(F)ccc(C)c2C)CC1 [Example 56, 1-(N-((1S,2S)-2-(6-fluoro-2,3-dimethylphenyl)-1-(5-oxo-4,5-dihydro-1,3,4-oxadiazol-2-yl)-propyl)sulfamoyl)-N-methylpiperidine-4-carboxamide]",10000 to 100000
15,"Cc1ccc(F)c([C@@H](C)[C@H](NS(=O)(=O)N2CCC(Br)CC2)c2n[nH]c(=O)o2)c1C [Example 100, 4-bromo-N-((1S,2R)-2-(6-fluoro-2,3-dimethylphenyl)-1-(5-oxo-4,5-dihydro-1,3,4-oxadiazol-2-yl)propyl)piperidine-1-sulfonamide]",100 to 1000
16,"COC1CCN(S(=O)(=O)N[C@H](c2n[nH]c(=O)o2)[C@@H](C)c2c(F)ccc(C)c2C)CC1 [Example 126, N-((1S,2S)-2-(6-fluoro-2,3-dimethylphenyl)-1-(5-oxo-4,5-dihydro-1,3,4-oxadiazol-2-yl)propyl)-4-methoxypiperidine-1-sulfonamide]",1000 to 10000
17,"Cc1ccc(F)c(C(C)[C@H](NS(=O)(=O)N2CCC(C3CC3)CC2)c2n[nH]c(=O)o2)c1C (stereo partly drawn) [Example 49, 4-cyclopropyl-N-((1S)-2-(6-fluoro-2,3-dimethylphenyl)-1-(5-oxo-4,5-dihydro-1,3,4-oxadiazol-2-yl)propyl)piperidine-1-sulfonamide]",1000 to 10000
18,"Cc1ccc(F)c(C(C)[C@H](NS(=O)(=O)N2CCCCC2C#N)c2n[nH]c(=O)o2)c1C (stereo partly drawn) [Example 3, 2-cyano-N-[(1S)-2-(6-fluoro-2,3-dimethylphenyl)-1-(5-oxo-4H-1,3,4-oxadiazol-2-yl)propyl]piperidine-1-sulfonamide]",1000 to 10000
